# Experimental data as given in PubChem BioAssay (NCI).
#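 The concentration for 50% growth inhibition is given as GI50. TGI: total growth inhibition.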
# Key:
# Assay in all cases: NCI anticancer screen, dose series, 384-well format
# RXF 393 renal = tested on: RXF 393 renal
# OVCAR-3 ovarian = tested on: OVCAR-3 ovarian
# UACC-257 melanoma = tested on: UACC-257 melanoma
# NCI-H322M lung = tested on: NCI-H322M lung
# CCRF-CEM leukemia = tested on: CCRF-CEM leukemia
# SNB-19 CNS = tested on: SNB-19 CNS
# SR leukemia = tested on: SR leukemia
# U251 glioblastoma = tested on: U251 glioblastoma
# MOLT-4 leukemia = tested on: MOLT-4 leukemia
# LOX IMVI melanoma = tested on: LOX IMVI melanoma
# 786-0 renal = tested on: 786-0 renal
# HOP-62 NSCLC = tested on: HOP-62 NSCLC
# MDA-MB-468 breast = tested on: MDA-MB-468 breast
# HS 578T breast = tested on: HS 578T breast
# BT-549 breast = tested on: BT-549 breast
# MALME-3M melanoma = tested on: MALME-3M melanoma
# SK-OV-3 ovarian = tested on: SK-OV-3 ovarian
# SN12C renal = tested on: SN12C renal
# UACC-62 melanoma = tested on: UACC-62 melanoma
# M14 melanoma = tested on: M14 melanoma
# OVCAR-4 ovarian = tested on: OVCAR-4 ovarian
# NCI-H460 NSCLC = tested on: NCI-H460 NSCLC
# A549 NSCLC = tested on: A549 NSCLC
# HT29 colon = tested on: HT29 colon
# PC-3 prostate = tested on: PC-3 prostate
# MCF7 breast = tested on: MCF7 breast
# KM12 colon = tested on: KM12 colon
# SNB-75 CNS = tested on: SNB-75 CNS
# COLO 205 colon = tested on: COLO 205 colon
# A498 renal = tested on: A498 renal
# SK-MEL-5 melanoma = tested on: SK-MEL-5 melanoma
# SK-MEL-28 melanoma = tested on: SK-MEL-28 melanoma
# HL-60(TB) leukemia = tested on: HL-60(TB) leukemia
# SF-268 CNS = tested on: SF-268 CNS
# EKVX NSCLC = tested on: EKVX NSCLC
# HCT-15 colon = tested on: HCT-15 colon
# OVCAR-8 ovarian = tested on: OVCAR-8 ovarian
# IGROV1 ovarian = tested on: IGROV1 ovarian
# SF-539 CNS = tested on: SF-539 CNS
# SK-MEL-2 melanoma = tested on: SK-MEL-2 melanoma
# HCC-2998 colon = tested on: HCC-2998 colon
# MDA-MB-435 melanoma = tested on: MDA-MB-435 melanoma
# HCT-116 colon = tested on: HCT-116 colon
# TK-10 renal = tested on: TK-10 renal
# NCI-H23 lung = tested on: NCI-H23 lung
# NCI/ADR-RES ovarian = tested on: NCI/ADR-RES ovarian
# RPMI-8226 leukemia = tested on: RPMI-8226 leukemia
# MDA-MB-231 breast = tested on: MDA-MB-231 breast
# K-562 leukemia = tested on: K-562 leukemia
structure (smiles),measurement,setting,value
CN(c1ncccc1CNc1nc(Nc2ccc3c(c2)CC(=O)N3)ncc1C(F)(F)F)S(C)(=O)=O,GI50,RXF 393 renal,1.2 µM
same,TGI,RXF 393 renal,2.69 µM
same,GI50,OVCAR-3 ovarian,2 µM
same,TGI,OVCAR-3 ovarian,4.74 µM
same,GI50,UACC-257 melanoma,2.01 µM
same,TGI,UACC-257 melanoma,4.34 µM
same,GI50,NCI-H322M lung,2.01 µM
same,TGI,NCI-H322M lung,4.45 µM
same,GI50,CCRF-CEM leukemia,1.71 µM
same,TGI,CCRF-CEM leukemia,3.33 µM
same,GI50,SNB-19 CNS,3.39 µM
same,TGI,SNB-19 CNS,> 100 µM
same,GI50,SR leukemia,0.501 µM
same,TGI,SR leukemia,1.67 µM
same,GI50,U251 glioblastoma,2.88 µM
same,TGI,U251 glioblastoma,> 100 µM
same,GI50,MOLT-4 leukemia,0.431 µM
same,TGI,MOLT-4 leukemia,1.3 µM
same,GI50,LOX IMVI melanoma,1.54 µM
same,TGI,LOX IMVI melanoma,3.58 µM
same,GI50,786-0 renal,2.44 µM
same,TGI,786-0 renal,7.78 µM
same,GI50,HOP-62 NSCLC,1.97 µM
same,TGI,HOP-62 NSCLC,7.83 µM
same,GI50,MDA-MB-468 breast,1.85 µM
same,TGI,MDA-MB-468 breast,3.38 µM
same,GI50,HS 578T breast,1.62 µM
same,TGI,HS 578T breast,3.7 µM
same,GI50,BT-549 breast,1.74 µM
same,TGI,BT-549 breast,3.88 µM
same,GI50,MALME-3M melanoma,2.2 µM
same,TGI,MALME-3M melanoma,4.94 µM
same,GI50,SK-OV-3 ovarian,3.1 µM
same,TGI,SK-OV-3 ovarian,> 100 µM
same,GI50,SN12C renal,2.4 µM
same,TGI,SN12C renal,5.72 µM
same,GI50,UACC-62 melanoma,1.39 µM
same,TGI,UACC-62 melanoma,2.86 µM
same,GI50,M14 melanoma,1.75 µM
same,TGI,M14 melanoma,4.24 µM
same,GI50,OVCAR-4 ovarian,2.48 µM
same,TGI,OVCAR-4 ovarian,8.64 µM
same,GI50,NCI-H460 NSCLC,1.61 µM
same,TGI,NCI-H460 NSCLC,3.29 µM
same,GI50,A549 NSCLC,3.15 µM
same,TGI,A549 NSCLC,> 100 µM
same,GI50,HT29 colon,3.74 µM
same,TGI,HT29 colon,> 100 µM
same,GI50,PC-3 prostate,2.51 µM
same,TGI,PC-3 prostate,> 100 µM
same,GI50,MCF7 breast,1.02 µM
same,TGI,MCF7 breast,8.25 µM
same,GI50,KM12 colon,0.218 µM
same,TGI,KM12 colon,1.72 µM
same,GI50,SNB-75 CNS,1.55 µM
same,TGI,SNB-75 CNS,3.6 µM
same,GI50,COLO 205 colon,1.46 µM
same,TGI,COLO 205 colon,4.28 µM
same,GI50,A498 renal,2.91 µM
same,TGI,A498 renal,> 100 µM
same,GI50,SK-MEL-5 melanoma,1.63 µM
same,TGI,SK-MEL-5 melanoma,3.11 µM
same,GI50,SK-MEL-28 melanoma,1.85 µM
same,TGI,SK-MEL-28 melanoma,4.2 µM
same,GI50,HL-60(TB) leukemia,1.7 µM
same,TGI,HL-60(TB) leukemia,3.09 µM
same,GI50,SF-268 CNS,1.82 µM
same,TGI,SF-268 CNS,3.99 µM
same,GI50,EKVX NSCLC,1.49 µM
same,TGI,EKVX NSCLC,4.17 µM
same,GI50,HCT-15 colon,3.81 µM
same,TGI,HCT-15 colon,17 µM
same,GI50,OVCAR-8 ovarian,3.31 µM
same,TGI,OVCAR-8 ovarian,> 100 µM
same,GI50,IGROV1 ovarian,2.42 µM
same,TGI,IGROV1 ovarian,> 100 µM
same,GI50,SF-539 CNS,1.86 µM
same,TGI,SF-539 CNS,3.7 µM
same,GI50,SK-MEL-2 melanoma,1.85 µM
same,TGI,SK-MEL-2 melanoma,3.58 µM
same,GI50,HCC-2998 colon,1.19 µM
same,TGI,HCC-2998 colon,3.21 µM
same,GI50,MDA-MB-435 melanoma,2.29 µM
same,TGI,MDA-MB-435 melanoma,7.7 µM
same,GI50,HCT-116 colon,1.89 µM
same,TGI,HCT-116 colon,> 100 µM
same,GI50,TK-10 renal,2.79 µM
same,TGI,TK-10 renal,> 100 µM
same,GI50,NCI-H23 lung,1.79 µM
same,TGI,NCI-H23 lung,3.34 µM
same,GI50,NCI/ADR-RES ovarian,26 µM
same,TGI,NCI/ADR-RES ovarian,95.6 µM
same,GI50,RPMI-8226 leukemia,1.66 µM
same,TGI,RPMI-8226 leukemia,3.03 µM
same,GI50,MDA-MB-231 breast,2.55 µM
same,TGI,MDA-MB-231 breast,> 100 µM
same,GI50,K-562 leukemia,2.83 µM
same,TGI,K-562 leukemia,> 100 µM
